Source: ChEMBL document CHEMBL3507680, “University of Dundee, Gates Library screen for HepG2 cell viability”

Experiment: Human HepG2 cell viability assay in 384 well format
Format: toxicity, cell-based
Design: dose 125 nL, time 70.5 hour; concentration not given beside the values
Conditions: HepG2 cells, read-out: Inhibition

Structure (SMILES) | cytotoxicity at 70.5 h [%]
CCN1CCN(C(=O)Cn2ncc3c2c(C)nn3C(C)C)CC1 | -4.28
Cc1nn(C)c2cn(CC(=O)N3CCc4ccccc4C3)nc12 | 1.13
COCCNC(=O)Cn1cc2c(n1)c(C)nn2C(C)C | -5.84
CCN1CCCC(O)(CN(C)Cc2c(C)nn(C)c2C)C1 (stereo not drawn) | 2.33
N#Cc1c(N2CCOCC2)nsc1-c1cccnc1 | -4.2
CCn1cc(N2Cc3nc(N4CCC(C)CC4)ncc3C2=O)cn1 | -8.76
CCN1CCN(c2nsc(-c3cccnc3)c2C#N)CC1 | -5.08
COc1ccc2nnc(C(=O)NC3CCCC3)nc2c1 | -4.15
COC(=O)C1CCN(C(=O)c2nnc3ccc(Cl)cc3n2)CC1 | -7.04
CC1CCN(c2ncc3c(n2)CN(C2CCS(=O)(=O)C2)C3=O)CC1 (stereo not drawn) | 29
Cc1cccc(N2Cc3nc(N4CCC(C)CC4)ncc3C2=O)c1 | -5.12
CCN1CCN(C(=O)c2cc(NC(=O)c3ccccc3)n(C)n2)CC1 | -3.8
Cc1nn(C)c(C)c1CNC(=O)c1cc(NC(=O)C2CC2)n(C)n1 | -7.51
Cn1nc(C(=O)NC2CCCCC2)cc1NC(=O)C1CC1 | -5.38
Cn1nc(C(=O)NC2CCCC2)cc1NC(=O)C1CC1 | -8.78
Cn1nc(C(=O)NC2CC2)cc1NC(=O)C1CC1 | -7.34
CCCN1CCN(c2nc(N)nc3c2nc(C)n3C)CC1 | 20.9
CC(=O)c1ccc(Nc2nc(N)nc3c2nc(C)n3C)cc1 | 4.46
Cc1nc2c(Nc3ccc(C#N)cc3)nc(N)nc2n1C | -1.73
O=C(CCn1ncc2c(Cl)cccc21)NCCCn1cccn1 | -5.51
Cc1ccsc1CN(CCCO)Cc1nc2ccccc2[nH]1 | -1.23
COCC(=O)N[C@@H]1CN(Cc2ccc3c(c2)OCCO3)C[C@H]1O | 9.74
COCCNc1cccc(C2CCCN2)n1 (stereo not drawn) | -6.3
O=C(CCN1CCc2ccccc21)N1C[C@@H](O)[C@H](N2CCOCC2)C1 | -3

Structure (SMILES) | cytotoxicity at 70.5 h [%]
CC1(C2CCN(CCCC(=O)O)CC2)CN(Cc2ccccc2)C(=O)O1 (stereo not drawn) | 2.48
CN(C)C(=O)CN1CCC2(CC1)C[C@@H](O)[C@H](c1ccccc1)NC2=O | -8.01
Cc1cccnc1CN1CC[C@@](C)(O)[C@H](Oc2ccccc2)C1 | -7.26
O[C@H]1CN(Cc2cc3ccccc3o2)CC[C@@]12CCCO2 | -8.98
CNc1cc(C2CN(CC(=O)N(C)C)CCO2)nc(C)n1 (stereo not drawn) | -5.66
Cc1cnc(C2(C)CCN(Cc3cscn3)CC2)s1 | -6.19
CCS(=O)(=O)N1CCCC(c2ccnc(N(C)C)c2)C1 (stereo not drawn) | -6.79
CN(C)c1nccc(C2CN(C(=O)CO)C2)n1 | -4.15
CC(=O)N1CCc2nnc(C3CCCCN3CC3CCCCC3)n2CC1 (stereo not drawn) | 12.6
O=C(O)c1cccc(CN2CCC(c3ccnc4ccnn34)CC2)c1 | -8.88
Cc1cc(C2CCCCN2C(=O)c2ccsc2)nc2nccn12 (stereo not drawn) | 6.22
Cc1cc(C2CCCCN2C(=O)c2cccn2C)nc2nccn12 (stereo not drawn) | 4.86
O=C(NCCNC1CCCC1)c1cccs1 | -6.72
COCC(=O)N1CCCC(c2csc(NC(C)=O)n2)C1 (stereo not drawn) | -8.74
CC(=O)N1CCOC(c2nc(N(C)C)ncc2-c2cccc(F)c2)C1 (stereo not drawn) | -7.24
Cc1nccc(N2CCCC(C)(C(=O)NC3CCCC3)C2)n1 (stereo not drawn) | -15.1
Fc1ccccc1-c1nccnc1C1CCCNC1 (stereo not drawn) | -8.72
CNc1cc(C2CCCN(S(=O)(=O)c3cn[nH]c3)C2)ccn1 (stereo not drawn) | -16.1
Cc1c[nH]c(C2COCCN2S(=O)(=O)c2cn[nH]c2)n1 (stereo not drawn) | -12.8
CS(=O)(=O)N1CCCC1Cn1cccn1 (stereo not drawn) | 2.44
CC1(C(=O)NC2CCCC2)CCCN(c2cnccn2)C1 (stereo not drawn) | -6.96
CN(C)c1nccc(C2CCCN2S(=O)(=O)c2cn(C)cn2)n1 (stereo not drawn) | -15.2
O=C1CO[C@H]2CN(Cc3cccc4[nH]ccc34)C[C@@H]2N1C1CCOCC1 | 5.48
Cc1ccc(Nc2nccc(C3CN(C(C)C)C3)n2)nc1 | 42.5

Structure (SMILES) | cytotoxicity at 70.5 h [%]
O=C(Nc1ccccn1)C1CCN(C(=O)COc2ccccc2F)C1 (stereo not drawn) | 18.6
CN1CCNC(Cc2ccc(-c3ccccc3)cc2)C1=O (stereo not drawn) | 21.5
CNc1cc(C2CCCN2S(=O)(=O)c2cccc(F)c2)ccn1 (stereo not drawn) | 14.1
Cn1nccc1C(=O)N1CCCC1c1[nH]ncc1C(N)=O (stereo not drawn) | -6.47
Cc1sc2c(C3CCCN(S(C)(=O)=O)C3)nc(C)n2c1C (stereo not drawn) | -9.83
Fc1ccc(N2CCOC(Cc3cccnc3)C2)cc1 (stereo not drawn) | -9.3
Cc1cc(CCC(=O)O)nc(C2CCCN2c2ccnc(C)n2)n1 (stereo not drawn) | -6.16
Cc1cc(N2CCC(c3n[nH]c4nccnc34)CC2)ncn1 | 19
COCCN1CCCC(Cc2ccc(N3CCOCC3)nn2)C1 (stereo not drawn) | -7.53
Cn1cc(C(=O)N2CCCC2c2[nH]ncc2C(N)=O)cn1 (stereo not drawn) | -5.5
COCCn1cnnc1C1CCCN(c2cnccn2)C1 (stereo not drawn) | -5.97
Cc1ccnn1CCC(=O)N1CCC(c2cnccn2)CC1 | -7.09
CCN(Cc1ccncc1)CC1(O)CCN(C(=O)c2cccc(C)n2)C1 (stereo not drawn) | -4.96
CNc1cncc(C2CCCN2S(=O)(=O)c2ccc(F)cc2)n1 (stereo not drawn) | -2.18
Cc1cc(C)nc(C2CCN(C(=O)c3cnc(N(C)C)nc3)C2)n1 (stereo not drawn) | -4.6
Cn1c(CN2CCOC(CCc3ccncn3)C2)nc2ccccc21 (stereo not drawn) | -3.77
Cc1ccc([C@@]2(O)CC[C@@H]3CN(S(=O)(=O)c4cn(C)nc4C)C[C@@H]32)cc1 | -2.34
Cc1noc(C)c1-c1nc(N(C)CCN(C)C)ncc1-c1cnccn1 | -6.02
CN1CCNC(Cc2ccc(-c3cccs3)cc2)C1=O (stereo not drawn) | -6.3
CC(=O)N1CCC(Cc2cnc(-c3c(C)n[nH]c3C)cn2)CC1 | 18.9
CNC(=O)c1cn[nH]c1C1CCCN1C(=O)c1cccnc1 (stereo not drawn) | -4.17
c1ccc(CO[C@H]2C[C@@H]3CN(Cc4cncnc4)C[C@@H]3C2)cc1 | -5.58
Cc1cc(C(N)=O)nc(C2(C)CCCN2Cc2cnn(C)c2)n1 (stereo not drawn) | -4.52
Cc1nc(CN2CCCC(c3nc(C)n4c(C)c(C)sc34)C2)co1 (stereo not drawn) | 21

Structure (SMILES) | cytotoxicity at 70.5 h [%]
COCCc1ncc(CNC2(c3ccc(Cl)cc3Cl)CC2)cn1 | -1.55
Cc1nc(C)c(C(=O)N2CCCC(c3cnccn3)C2)s1 (stereo not drawn) | -2.44
CC(C)CC(=O)N1CCC(c2nnc3n2CCCCC3)CC1 | -0.981
Cc1ccc(CN(C)C(=O)NCC(C)(C)S(C)(=O)=O)s1 | -2.7
CC(C)c1ncc2c(n1)CN(CC1CCCCO1)CC2 (stereo not drawn) | -2.55
Cc1cccc(C(=O)N(CCCO)S(=O)(=O)c2cccs2)c1 | -0.969
CCC1CCCCN1S(=O)(=O)c1c(C)noc1C (stereo not drawn) | -7.69
Cc1ccnc(NC(=O)C2CCCO2)c1 (stereo not drawn) | 6.19
CCNC(=O)CN(CC)C(=O)c1cccc(Nc2cnn(C)c2)c1 | 6.01
COC1CCN(C(=O)c2ccc3ncsc3c2)CC1 | -2.33
CCn1cnnc1CNC(=O)NC(c1ccc(OC)cc1)C1CC1 (stereo not drawn) | -6.45
CCC(NC(=O)NCc1nncn1CC)c1ccc(OC)cc1 (stereo not drawn) | -9.27
O=c1cc(CN(CCO)C2CC2)nc2ccc(Br)cn12 | -4.99
CN(CCO)Cc1cc(=O)n2cc(Br)ccc2n1 | -1.02
CCN(Cc1cc(=O)n2cc(Br)ccc2n1)C1CC1 | -7.36
O=C(Cc1cccs1)NCCNc1nccc(C(F)(F)F)n1 | -3.67
CCCS(=O)(=O)N1CCCC(c2nc(-c3ccccc3)c[nH]2)C1 (stereo not drawn) | -2.79
CC(C)(C)C(=O)NCCC(=O)Nc1cc(C#N)cn1C(C)(C)C | -4.11
O=C(O)c1ccc(-c2cscn2)cc1 | -6.68
CC(C)COc1cncc(NCc2nnc3ccccn23)n1 | -3.83
CC(C)(C)n1cc(C#N)cc1NC(=O)CCS(=O)(=O)C1CCCC1 | 0.563
CCSCc1ccnc(NC(=O)C2CCOC2)c1 (stereo not drawn) | -4
COc1ccncc1NCc1ccsc1 | -2.45
CC(Cc1cccc(Cl)c1)NC(=O)NCc1ncnn1C (stereo not drawn) | 11.1

Structure (SMILES) | cytotoxicity at 70.5 h [%]
CN(C)C(=O)CCC[S+]([O-])Cc1cc(Cl)ccc1Cl (stereo not drawn) | -3.61
CN(C)C(=O)CCC[S+]([O-])Cc1ccc(Cl)c(Cl)c1 (stereo not drawn) | -3.04
CN(C)C(=O)CCC[S+]([O-])Cc1ccc(F)c(F)c1 (stereo not drawn) | 13.1
COc1cc(CNc2nc(C(F)(F)F)no2)cc(OC)c1OC | -4.05
O=S(=O)(c1ccc(Cl)s1)N1CCCC(c2ncc[nH]2)C1 (stereo not drawn) | -1.59
CCc1ccc(S(=O)(=O)N2CCCC(c3ncc[nH]3)C2)s1 (stereo not drawn) | -4.54
COc1cc(CO)ccc1OCc1nc(C(C)C)no1 | -3.56
CCSCc1ccnc(NC(=O)C2CCCO2)c1 (stereo not drawn) | -2.71
COC(=O)NCC(=O)N1CCCC1c1nc(-c2ccccc2F)c[nH]1 (stereo not drawn) | -3.18
Cc1ccccc1C(C)NC(=O)CN1CCN(Cc2ccc(Br)s2)CC1 (stereo not drawn) | 18.7
NC(=O)CS(=O)(=O)Cc1ccc(F)cc1 | -1.66
O=C(CCC1CCCC1)NCc1nnc2ccccn12 | -10.1
O=C(NC1CCCC1)c1ccc(C2CCCNC2)nc1 (stereo not drawn) | 9.52
O=C(NCCO)C1(Cc2ccccc2-c2cccnc2)CCOCC1 | -10.7
Cc1nc(C2(O)CCCNCC2)sc1CCOc1ccccc1F (stereo not drawn) | 2.34
CN(C)c1ncc(-c2cccc(F)c2)c(C2CNCCO2)n1 (stereo not drawn) | -5.48
O=S(=O)(N1CCCC1)N1C[C@@H](c2cccc(F)c2)[C@@H]2NCCCCC[C@H]21 | -6.83
COc1ccc2ccccc2c1CNCC1CCS(=O)(=O)C1 (stereo not drawn) | -8.26
Cc1noc(C)c1-c1nc(C2CCCNC2)ccc1CO (stereo not drawn) | -5.83
CN(C)C(=O)c1ccc(C2CCCNC2)nc1 (stereo not drawn) | -6.57
COc1ncc(CN(CCCN2CCOCC2)Cc2ccc(C)o2)cn1 | -4.04
O=C(CN1CCCCC1)N1CCC(c2cc(=O)n3c(n2)CCCCC3)C1 (stereo not drawn) | -1.74
